Test results reported in the supplement of paper PMC10307832.

Columns and labels:
Assay in all cases: relative viability (nuclei count vs DMSO), 5 days (fraction); higher = more cells survive
QS11 + Olaparib = compound: C1CC2=C(C1)C=C(C=C2)OC3=NC(=C4C(=N3)N(C=N4)CC5=CC=C(C=C5)C6=CC=CC=C6)N[C@@H](CC7=CC=CC=C7)CO [QS11] + O=C(c1cc(Cc2n[nH]c(=O)c3ccccc23)ccc1F)N1CCN(C(=O)C2CC2)CC1 [Olaparib] (partner 8 µM)
Outline: (§1)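 Relative viability divides the nuclei count in treated wells by that in vehicle wells. Lung cancer cell lines were seeded in 1536-well plates, dosed by pin tool the next day, and fixed and stained after 5 days in one step with final 0.05% Triton X-100, 1% formaldehyde and 1 ug/ml Hoechst. Dosing was a single drug or a fixed anchor-drug dose plus five library-drug doses (not always all listed) in √10 steps, and values are medians of duplicate plates imaged at 4×.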

AZ628 + Foretinib = compound: CC1=C(C=C(C=C1)NC(=O)C2=CC(=CC=C2)C(C)(C)C#N)NC3=CC4=C(C=C3)N=CN(C4=O)C [AZ628] + COc1cc2c(Oc3ccc(NC(=O)C4(C(=O)Nc5ccc(F)cc5)CC4)cc3F)ccnc2cc1OCCCN1CCOCC1 [Foretinib] (partner 0.25 µM)
Outline: as §1

AZ628 + Palbociclib = compound: CC1=C(C=C(C=C1)NC(=O)C2=CC(=CC=C2)C(C)(C)C#N)NC3=CC4=C(C=C3)N=CN(C4=O)C [AZ628] + CC(=O)c1c(C)c2cnc(Nc3ccc(N4CCNCC4)cn3)nc2n(C2CCCC2)c1=O [Palbociclib] (partner 0.5 µM)
Outline: as §1

[1] = compound: C[As](C)SC[C@H](NC(=O)CC[C@H](N)C(=O)O)C(=O)NCC(=O)O [Darinaparsin] + Nc1ncn([C@H]2C[C@H](O)[C@@H](CO)O2)c(=O)n1 [Decitabine] (partner 2 µM)
Outline: as §1

Cell Line | relative viability (QS11 + Olaparib; first compound 0.08 µM) | relative viability (QS11 + Olaparib; first compound 0.253 µM) | relative viability (QS11 + Olaparib; first compound 0.8 µM) | relative viability (QS11 + Olaparib; first compound 2.53 µM) | relative viability (QS11 + Olaparib; first compound 8 µM) | relative viability (AZ628 + Foretinib; first compound 0.08 µM) | relative viability (AZ628 + Foretinib; first compound 0.253 µM) | relative viability (AZ628 + Foretinib; first compound 0.8 µM) | relative viability (AZ628 + Foretinib; first compound 2.53 µM) | relative viability (AZ628 + Foretinib; first compound 8 µM) | relative viability (AZ628 + Palbociclib; first compound 0.08 µM) | relative viability (AZ628 + Palbociclib; first compound 0.253 µM) | relative viability (AZ628 + Palbociclib; first compound 0.8 µM) | relative viability (AZ628 + Palbociclib; first compound 2.53 µM) | relative viability (AZ628 + Palbociclib; first compound 8 µM) | relative viability ([1]; first compound 0.08 µM) | relative viability ([1]; first compound 0.8 µM) | relative viability ([1]; first compound 2.53 µM) | relative viability ([1]; first compound 8 µM)
HOP-62 | 0.477 | 0.46 | 0.31 | 0.319 | 0.382 | 1.05 | 1.07 | 1.02 | 0.999 | 0.629 | 0.49 | 0.473 | 0.491 | 0.492 | 0.314 | 0.233 | 0.27 | 0.235 | 0.23
NCI-H1437 | 0.661 | 0.635 | 0.673 | 0.625 | 0.541 | 1.26 | 1.13 | 1.25 | 1.28 | 1.23 | 0.317 | 0.297 | 0.274 | 0.425 | 0.379 | 0.653 | 0.565 | 0.583 | 0.599
HCC-366 | 0.41 | 0.467 | – | 0.452 | 0.212 | 0.885 | 0.884 | 0.781 | 0.892 | 0.372 | 0.383 | 0.352 | 0.328 | 0.445 | 0.163 | 0.407 | – | 0.413 | 0.352
NCI-H1755 | 0.856 | 0.876 | 0.665 | 0.767 | 0.648 | 0.905 | 0.929 | 0.858 | 0.965 | 0.867 | 0.449 | 0.461 | 0.446 | 0.435 | 0.397 | 0.748 | 0.801 | 0.714 | 0.784
NCI-H3122 | 0.636 | 0.694 | – | 0.601 | 0.637 | 0.787 | 0.625 | 0.499 | 0.613 | 0.233 | 0.159 | 0.144 | 0.142 | 0.144 | 0.137 | 0.425 | 0.437 | 0.42 | 0.442
ChaGo-K-1 | – | 0.448 | 0.352 | 0.397 | 0.387 | 0.962 | 0.837 | 0.924 | 0.916 | 0.751 | 0.993 | 0.934 | 0.892 | 0.986 | 1.02 | 0.464 | 0.499 | 0.506 | 0.577
SW 1573 | 0.615 | 0.489 | 0.503 | 0.416 | 0.463 | 0.858 | 0.858 | 0.664 | 0.7 | 0.517 | 0.409 | 0.312 | 0.275 | 0.291 | 0.173 | 0.564 | 0.468 | 0.61 | 0.555
NCI-H2085 | 0.741 | 0.846 | 0.773 | 0.785 | 0.976 | 0.994 | 1.17 | 1.07 | 1.09 | 0.676 | 0.478 | 0.445 | 0.496 | 0.493 | 0.43 | 0.532 | 0.474 | 0.601 | 0.527
NCI-H727 | 0.653 | 0.661 | 0.654 | 0.589 | 0.753 | 0.628 | 0.455 | 0.383 | 0.319 | 0.322 | 0.553 | – | – | 0.517 | 0.363 | 0.891 | 0.816 | 0.9 | 1.04
NCI-H2405 | 0.847 | 0.803 | 0.768 | 0.961 | 0.83 | 0.637 | 0.857 | 0.673 | 0.757 | 0.539 | 0.4 | 0.4 | 0.347 | 0.35 | 0.353 | 0.802 | 0.716 | 0.663 | 0.735
NCI-H1666 | 0.78 | 0.75 | 0.697 | 0.693 | 0.516 | 0.894 | 0.769 | 0.749 | 0.756 | 0.893 | 0.678 | 0.666 | 0.683 | 0.71 | 0.685 | 0.679 | 0.74 | 0.766 | 0.786
BEN | 0.667 | 1.1 | 1.03 | 1.01 | 0.992 | 0.694 | 0.511 | 0.544 | 0.561 | 0.571 | 0.487 | 0.489 | 0.46 | 0.51 | 0.452 | 0.724 | 0.72 | 0.812 | 0.811
NCI-H1650 | 0.825 | 0.816 | 0.719 | 0.686 | 0.898 | 1.33 | 1.34 | 1.42 | 1.26 | 1.02 | 0.471 | 0.372 | 0.335 | 0.302 | 0.42 | 0.325 | 0.41 | 0.397 | 0.359
HARA | 0.729 | – | 0.473 | 0.919 | 0.803 | 0.713 | 0.898 | 0.792 | 0.795 | 0.392 | 0.216 | 0.3 | 0.223 | 0.275 | 0.222 | 0.6 | – | 0.51 | 0.603
RERF-LC-KJ | 0.988 | 0.975 | 0.885 | 0.822 | 0.593 | 0.885 | 0.922 | 0.898 | 0.899 | 0.893 | 1.07 | 1.09 | 0.994 | 1.13 | 0.843 | 0.728 | 0.68 | 0.687 | 0.561
NCI-H1975 | 0.814 | 0.891 | 0.814 | 1.07 | 0.688 | 0.905 | 0.922 | 0.872 | 0.918 | 0.582 | 0.504 | 0.485 | 0.548 | 0.534 | 0.233 | 0.382 | 0.429 | 0.425 | 0.374
EPLC-272H | 0.707 | 0.888 | 0.716 | 0.808 | 0.505 | 0.671 | 0.625 | 0.654 | 0.581 | 0.309 | 0.32 | 0.345 | 0.292 | 0.317 | 0.25 | 0.377 | 0.37 | 0.353 | 0.329
